{"source": "patent US4277477A", "about": "“Method of using 1,2-benzisothiazoles” (BASF Aktiengesellschaft, priority 1977, dated 1981)", "key": {"in vivo": {"assay": "in vivo", "assay_type": "in vivo, rats (Sprague Dawley)", "settings": "rat, in vivo; rats, oral; read-out: Maximum effect, Dose (maximum nontoxic dose)", "description": "(§1) The anti-arrhythmic activity of the compounds is determined by orally administering these to rats (Sprague Dawley, weight: 180-240 g) 45 minutes before the start of narcosis (100 mg/kg of thiobutabarbital, administered intraperitoneally).\n(§2) The arrhythmogenous substance used was aconitine, administered by intravenous infusion (at the rate of 0.005 mg/kg. minute) 60 minutes after administration of the benzisothiazole derivative.\n(§3) for a quantitative evaluation of the linear relation between the logarithm of the dose (mg/kg) of the test substances and the relative increase in the duration of infusion of aconitine (Δ%), the dose which increases the duration of infusion by 50% (ED 50%) was determined."}, "[1]": {"system": "Aconitineinduced arrhythmia in rats", "assay": "in vivo", "assay_type": "in vivo, rats (Sprague Dawley)", "settings": "oral", "description": "as §1, §2, §3"}, "female Swiss mice": {"system": "female Swiss mice", "settings": "LD 50 mice i.p. / ED 50% rats oral", "description": "The acute toxicity was determined on groups of 10 or 20 female Swiss mice weighing 20-26 g, using intraperitoneal administration."}}, "note": "Where a name gives a salt, the structure may show the parent alone."}
{"smiles": "c1ccc2c(-c3ccc(C4=NCCCN4)cc3)nsc2c1", "note": "[Example 2, 3-[4'-(Tetrahydropyrimidin-2\"-yl)-phenyl]-1,2-benzisothiazole hydrochloride]", "values": [{"measurement": "MTD", "setting": "in vivo", "result": 215, "unit": "mg/kg"}, {"measurement": "antiarrhythmic activity, times greater than that of procainamide", "setting": "[1]", "result": "about 5 times"}, {"measurement": "therapeutic range (LD 50/ED 50%), times greater than for procainamide", "setting": "female Swiss mice", "result": 4, "unit": "times"}]}
{"smiles": "CC1CN=C(c2ccc(-c3nsc4ccccc34)cc2)N1", "note": "(centres unmarked) [Example 3, 3-[4'-(Methylimidazolin-2\"-yl)-phenyl]-1,2-benzisothiazole hydrochloride]", "values": [{"measurement": "MTD", "setting": "in vivo", "result": 215, "unit": "mg/kg"}, {"measurement": "antiarrhythmic activity, times greater than that of procainamide", "setting": "[1]", "result": "about 5 times"}, {"measurement": "Antiarrhythmic effect, R.E. (relative effect; procainamide = 1.00)", "setting": "[1]; relative to procainamide", "result": 4.80}, {"measurement": "therapeutic range (LD 50/ED 50%), times greater than for procainamide", "setting": "female Swiss mice", "result": 2.8, "unit": "times"}]}
{"smiles": "CCN(CC)CCNC(=O)c1ccc(N)cc1", "note": "[Procainamide, procainamide, reference compound]", "values": [{"measurement": "MTD", "setting": "in vivo", "result": 681, "unit": "mg/kg"}]}
